# Reference: patent publication US4102994A, “Aliphatic amido-quaternary ammonium anti-microbial compounds” (Colgate-Palmolive Company, priority 1977, dated 1978)
# Where two headings read alike, the source gives them in different places.
# Experiments:
# A. niger = assay: Test tube serial dilution test (minimal inhibitory concentration); type: cell-based; settings: Aspergillus niger, broth serial dilution, read-out: Minimum Inhibitory Concentration
# Method: (§1) The anti-microbial nature of the instant novel compounds was shown by a standard test tube serial dilution test in which an appropriate number of test tubes of broth containing decreasing concentrations of the test agent was innoculated with the test organism. After a suitable period of incubation, the tubes were examined for the presence or absence of growth. The activity of the test agent was the lowest concentration which inhibited the growth of the organism and is expressed as the minimal inhibitory concentration in ppm. As shown in the following table of antimicrobial data, a definite break occurs between compounds wherein R^4 contains 8 carbons and 10 carbons.
# C. albicans = assay: as above; type: cell-based; settings: Candida albicans
# Method: as §1
# E. coli = assay: as above; type: cell-based; settings: Escherichia coli
# Method: as §1
# P. aeruginosa = assay: as above; type: cell-based; settings: Pseudomonas aeruginosa, broth serial dilution, read-out: Minimum Inhibitory Concentration
# Method: as §1
# S. aureus = assay: as above; type: cell-based; settings: Staphylococcus aureus
# Method: as §1
# Str. mutans = assay: as above; type: cell-based; settings: Streptococcus mutans, broth serial dilution, read-out: Minimum Inhibitory Concentration
# Method: as §1
# Str. sanguis = assay: as above; type: cell-based; settings: Streptococcus, broth serial dilution, read-out: Minimum Inhibitory Concentration
# Method: as §1
# A. naeslundii = assay: as above; type: cell-based, Actinomycetes naeslundii; settings: Actinomyces naeslundii, broth serial dilution, read-out: Minimum Inhibitory Concentration
# Method: as §1
# T. mentagrophytes = assay: as above; type: cell-based, Trichophyton mentogrophytes; settings: Trichophyton mentagrophytes
# Method: as §1
# Str. mitis = assay: as above; type: cell-based; settings: Streptococcus mitis
# Method: as §1
# dental calculus = assay: Dental calculus inhibition in rats on Zipkin-McClure calculus producing diet, Baer's method; type: in vivo, littermated albino rats; settings: .1% test solution, teeth swabbed thirty seconds each day for six weeks, vs water control, 99% significant
# From the text: The quaternary ammonium amides of adamantanecarboxylic acid are particularly effective in inhibiting the development of dental calculus as shown by the results of tests on littermated albino rats, in groups of 15 males and 15 females who were fed a Zipkin-McClure calculus producing diet. For six weeks the teeth of each animal were swabbed for thirty seconds each day with a test solution or water for the control group. The animals were then sacrificed, defleshed and scored by Baer's method for calculus. The results were analyzed by Student's "t" test and in the results quoted were 99% significant.
# [1] = C. albicans, broth serial dilution, read-out: Minimum Inhibitory Concentration
# [2] = E. coli, broth serial dilution, read-out: Minimum Inhibitory Concentration
# [3] = S. aureus, broth serial dilution, read-out: Minimum Inhibitory Concentration
# [4] = T. mentagrophytes, broth serial dilution, read-out: Minimum Inhibitory Concentration
# [5] = Str. mitis, broth serial dilution, read-out: Minimum Inhibitory Concentration
# [6] = Table III, no quantity or unit printed in the table, minimal inhibitory concentration in ppm, read-out: antimicrobial results, C.albicans (Table III)
# [7] = Table III, no quantity or unit printed in the table, minimal inhibitory concentration in ppm, read-out: antimicrobial results, E.coli (Table III)
# [8] = read-out: antimicrobial results, S.aureus (Table III)
# [9] = Table III, no quantity or unit printed in the table, minimal inhibitory concentration in ppm, read-out: antimicrobial results, S.mitis (Table III)
# [10] = Table III, no quantity or unit printed in the table, minimal inhibitory concentration in ppm, read-out: antimicrobial results, T.mentagrophytes (Table III)
structure (smiles),measurement,setting,value
"CCCCCCCCCCCCCC[N+](C)(C)CCCNC(=O)[C@H]1CC[C@@H]2CCC[C@@H]21 (relative stereo) [Comp.14, 3-(exo,cis-Bicyclooctane-2-carboxamido)propyltetradecyl dimethyl ammonium bromide]",MIC,A. niger,25 µg/mL
same,MIC,C. albicans; [1],3.12 µg/mL
same,MIC,E. coli; [2],50 µg/mL
same,MIC,P. aeruginosa,50 µg/mL
same,MIC,S. aureus; [3],0.78 µg/mL
same,MIC,Str. mutans,< 0.05 µg/mL
same,MIC,Str. sanguis,6.25 µg/mL
same,MIC,A. naeslundii,< 0.05 µg/mL
same,MIC,T. mentagrophytes; [4],3.12 µg/mL
CCCCCCCCCCCC[N+](C)(C)CCCNC(=O)[C@H]1CC[C@@H]2CCC[C@@H]21 (relative stereo) [Comp.15],MIC,A. niger,25 µg/mL
same,MIC,C. albicans; [1],3.12 µg/mL
same,MIC,E. coli; [2],25 µg/mL
same,MIC,P. aeruginosa,25 µg/mL
same,MIC,S. aureus; [3],1.56 µg/mL
same,MIC,Str. mutans,0.1 µg/mL
same,MIC,Str. sanguis,3.12 µg/mL
same,MIC,A. naeslundii,0.19 µg/mL
same,MIC,T. mentagrophytes; [4],6.25 µg/mL
"CCCCCCCCCC[N+](C)(C)CCCNC(=O)CCCCCCC.[I-] [Comp.3, 3-Octaneamidopropyldimethyldecyl ammonium iodide]",MIC,A. niger,25 µg/mL
same,MIC,C. albicans; [1],6.25 µg/mL
same,MIC,E. coli; [2],50 µg/mL
same,MIC,P. aeruginosa,25 µg/mL
same,MIC,S. aureus; [3],12.5 µg/mL
same,MIC,Str. mutans,0.78 µg/mL
same,MIC,Str. sanguis,6.25 µg/mL
same,MIC,A. naeslundii,12.5 µg/mL
same,MIC,T. mentagrophytes; [4],12.5 µg/mL
"CCCCCCCCCCCC[N+](C)(C)CCCNC(=O)C12CC3CC(CC(C3)C1)C2 [Comp.9, 3-(1'-adamantanecarboxamido)propyldimethyldodecyl ammonium bromide]",MIC,A. niger,25 µg/mL
same,MIC,C. albicans; [1],6.25 µg/mL
same,MIC,E. coli; [2],50 µg/mL
same,MIC,S. aureus; [3],0.78 µg/mL
same,MIC,Str. mitis; [5],0.39 µg/mL
same,MIC,T. mentagrophytes; [4],12.5 µg/mL
"CCCCCCCCCCCCCC[N+](C)(C)CCCNC(=O)C12CC3CC(CC(C3)C1)C2 [Comp.10, 3-(1'-adamantanecarboxamido)propyldimethyltetradecyl ammonium bromide]",MIC,A. niger,50 µg/mL
same,MIC,C. albicans; [1],6.25 µg/mL
same,MIC,E. coli; [2],25 µg/mL
same,MIC,S. aureus; [3],0.39 µg/mL
same,MIC,Str. mitis; [5],0.39 µg/mL
same,MIC,T. mentagrophytes; [4],25 µg/mL
same,"Calculus Reduction, Females",dental calculus; females,6.27%
same,"Calculus Reduction, Males",dental calculus; males,43.43%
"CCCCCCCCCCCCCC[N+](C)(C)CCCNC(=O)C1CC2CCC1C2 (centres unmarked) [Comp.16, 3-(2'-norbornanecarboxamido)propyltetradecyldimethyl ammonium bromide]",MIC,A. niger,25 µg/mL
same,MIC,C. albicans; [1],3.12 µg/mL
same,MIC,E. coli; [2],50 µg/mL
same,MIC,P. aeruginosa,50 µg/mL
same,MIC,S. aureus; [3],1.56 µg/mL
same,MIC,Str. mutans,0.1 µg/mL
same,MIC,Str. sanguis,1.56 µg/mL
same,MIC,A. naeslundii,0.1 µg/mL
same,MIC,T. mentagrophytes; [4],6.25 µg/mL
"CCCCCCCCCCCCCC[N+](C)(C)CCCNC(=O)C(CC)CCCC (centres unmarked) [R *C7 (branch), R^4 C14, X Cl]",MIC,C. albicans; [6],3.12 µg/mL
same,MIC,E. coli; [7],50 µg/mL
same,MIC,S. aureus; [8],0.78 µg/mL
same,MIC,Str. mitis; [9],1.56 µg/mL
same,MIC,T. mentagrophytes; [10],6.25 µg/mL
"CCCCCCCCCCCC[N+](C)(C)CCCNC(=O)C(CC)CCCC (centres unmarked) [R *C7 branch, R^4 C12, X I]",MIC,C. albicans; [6],3.12 µg/mL
same,MIC,E. coli; [7],50 µg/mL
same,MIC,S. aureus; [8],1.56 µg/mL
same,MIC,Str. mitis; [9],3.12 µg/mL
same,MIC,T. mentagrophytes; [10],12.5 µg/mL
"CCCCCCCCCCCCCC[N+](C)(C)CCCNC(=O)CCCCCCC.[Cl-] [R C7, R^4 C14, X Cl, 3-Octaneamidopropyldimethyltetradecyl ammonium chloride]",MIC,C. albicans; [6],3.12 µg/mL
same,MIC,E. coli; [7],50 µg/mL
same,MIC,S. aureus; [8],0.78 µg/mL
same,MIC,Str. mitis; [9],1.56 µg/mL
same,MIC,T. mentagrophytes; [10],3.12 µg/mL
"CCCCCCCCCCCC[N+](C)(C)CCCNC(=O)CCCCCCCC [R C8, R^4 C12, X I]",MIC,C. albicans; [6],1.56 µg/mL
same,MIC,E. coli; [7],12.5 µg/mL
same,MIC,S. aureus; [8],0.78 µg/mL
same,MIC,Str. mitis; [9],1.56 µg/mL
same,MIC,T. mentagrophytes; [10],12.5 µg/mL
"CCCCCCCCCCCCCC[N+](C)(C)CCCNC(=O)CCCCCCCC.[Cl-] [R C8, R^4 C14, X Cl, 3-Nonaneamidopropyldimethyltetradecyl ammonium chloride]",MIC,C. albicans; [6],1.56 µg/mL
same,MIC,E. coli; [7],100 µg/mL
same,MIC,S. aureus; [8],1.56 µg/mL
same,MIC,Str. mitis; [9],0.78 µg/mL
same,MIC,T. mentagrophytes; [10],3.12 µg/mL
"CCCCCCCCCCCCCC[N+](C)(C)CCCNC(=O)CCCCCCCCC.[Cl-] [R C9, R^4 C14, X Cl, 3-Decaneamidopropyldimethyltetradecyl ammonium chloride]",MIC,C. albicans; [6],3.12 µg/mL
same,MIC,E. coli; [7],100 µg/mL
same,MIC,S. aureus; [8],3.12 µg/mL
same,MIC,Str. mitis; [9],6.25 µg/mL
same,MIC,T. mentagrophytes; [10],6.25 µg/mL
"CCCCCCCCCCCC(=O)NCCC[N+](C)(C)C [R C11, R^4 C1, X I, reference compound]",MIC,C. albicans; [6],50 µg/mL
same,MIC,E. coli; [7],50 µg/mL
same,MIC,S. aureus; [8],50 µg/mL
same,MIC,Str. mitis; [9],50 µg/mL
same,MIC,T. mentagrophytes; [10],50 µg/mL
"CCCCCCCCCCCCCC[N+](C)(C)CCCNC(=O)CCCCCCCCCCC.[Cl-] [R C11, R^4 C14, X Cl, 3-Dodecaneamidopropyldimethyltetradecyl ammonium chloride]",MIC,C. albicans; [6],25 µg/mL
same,MIC,E. coli; [7],100 µg/mL
same,MIC,S. aureus; [8],6.25 µg/mL
same,MIC,Str. mitis; [9],12.5 µg/mL
same,MIC,T. mentagrophytes; [10],25 µg/mL
"CCCC[N+](CC)(CC)CCNC(=O)C12CC3CC(CC(C3)C1)C2 [R^4 =C4 H9, reference compound]",MIC,A. niger,100 µg/mL
same,MIC,C. albicans; [1],100 µg/mL
same,MIC,S. aureus; [3],100 µg/mL
same,MIC,Str. mutans,100 µg/mL
same,MIC,Str. sanguis,50 µg/mL
same,MIC,A. naeslundii,100 µg/mL
same,MIC,T. mentagrophytes; [4],50 µg/mL
"CCCCCC[N+](CC)(CC)CCNC(=O)C12CC3CC(CC(C3)C1)C2 [R^4 =C6 H13, reference compound]",MIC,A. niger,100 µg/mL
same,MIC,C. albicans; [1],100 µg/mL
same,MIC,S. aureus; [3],100 µg/mL
same,MIC,Str. mutans,100 µg/mL
same,MIC,Str. sanguis,50 µg/mL
same,MIC,A. naeslundii,50 µg/mL
same,MIC,T. mentagrophytes; [4],50 µg/mL
"CCCCCCCC[N+](CC)(CC)CCNC(=O)C12CC3CC(CC(C3)C1)C2 [R^4 =C8 H17, reference compound]",MIC,A. niger,100 µg/mL
same,MIC,C. albicans; [1],50 µg/mL
same,MIC,S. aureus; [3],25 µg/mL
same,MIC,Str. mutans,25 µg/mL
same,MIC,Str. sanguis,50 µg/mL
same,MIC,A. naeslundii,12.5 µg/mL
same,MIC,T. mentagrophytes; [4],50 µg/mL
CCCCCCCCCC[N+](CC)(CC)CCNC(=O)C12CC3CC(CC(C3)C1)C2 [R^4 =C10 H21],MIC,A. niger,50 µg/mL
same,MIC,C. albicans; [1],6.25 µg/mL
same,MIC,S. aureus; [3],3.12 µg/mL
same,MIC,Str. mutans,6.25 µg/mL
same,MIC,Str. sanguis,6.25 µg/mL
same,MIC,A. naeslundii,1.56 µg/mL
same,MIC,T. mentagrophytes; [4],50 µg/mL
CCCCCCCCCCCC[N+](CC)(CC)CCNC(=O)C12CC3CC(CC(C3)C1)C2 [R^4 =C12 H25],MIC,A. niger,12.5 µg/mL
same,MIC,C. albicans; [1],1.56 µg/mL
same,MIC,S. aureus; [3],1.56 µg/mL
same,MIC,Str. mutans,0.78 µg/mL
same,MIC,Str. sanguis,3.12 µg/mL
same,MIC,A. naeslundii,0.39 µg/mL
same,MIC,T. mentagrophytes; [4],3.12 µg/mL
